Data: publication PMC11547735, “Effect of Oral Administration of Collagen Peptide OG-5 on Advanced Atherosclerosis Development in ApoE^−/− Mice” (Nutrients, 2024)
Like-named read-outs stand apart in the source and are kept apart here. Square brackets hold non-standard residues; d marks the D form. Peptide text beside a SMILES is read from it. Hyp = O=C(O)[C@@H]1C[C@@H](O)CN1

How the values were obtained:
[1] = Body weight and organ index of ApoE−/− mice after oral administration; type: in vivo, mouse; settings: n = 8
Experimental: The animal study was performed in compliance with the requirements of the Guide for the Care and Use of Laboratory Animals (NIH publication No.86-23, revised 1996) and was approved by the Welfare Committee of Pony Testing International Group Co., Ltd., Beijing, China (PONY-2021-FL-12, approval date: 5 December 2021). The 7-week-old male ApoE^−/− mice and C57BL/6J mice were purchased from Beijing Vital River Laboratory Animal Technology Co., Ltd. (Beijing, China). The mice were acclimatized for a period of one week in a pathogen-free environment, maintained under a controlled 12-h light/dark cycle at a constant temperature of 21 °C. During this period, they had unrestricted access to a standard rodent chow diet and tap water. Following acclimatization, the mice were assigned to experimental groups randomly, with each group consisting of eight mice.
(§1) The establishment of the AS model in ApoE^−/− mice was divided into two stages. At I stage, 8-week-old male ApoE^−/− mice were fed a Western-type diet (42% fat; 21% anhydrous milk fat, 0.15% cholesterol) for 16 weeks to establish an early AS model. At II stage, a high-fat and high-cholesterol diet (containing 5% cholesterol, 0.5% sodium cholate, 20% fat) was replaced at the 17th week to accelerate the progress of AS till the 24th week. The C57BL6/J mice were utilized as the normal control group and maintained on a standard maintenance diet (20% protein; 5% fat; 50% carbohydrate; 5% cellulose; 10% vitamins and minerals). The mice were subsequently randomized into 4 groups, each consisting of 8 animals: (i) M Group (0.9% saline for ApoE^−/− mice), (ii) Sustainable OG-5 intervention group (50 mg/kg bw) during two stages, (iii) OG-5 treatment group (150 mg/kg bw), and (iv) aspirin group (25 mg/kg bw) at II stage. The OG-5 and aspirin were orally administered to mice every other day. Animals that were not subjected to any treatment and maintained on a normal diet served as the control group (N group). The body weight was monitored every week.
(§2) After 24-week treatment, the mice were fasted overnight and sacrificed. Blood was collected to stand at room temperature for 2 h, and the serum was separated by centrifugation for further analysis.

ApoE^−/− mice [2] = test: Serum lipid levels in ApoE−/− mice (advanced atherosclerosis model); type: in vivo, mouse; settings: aspirin 25 mg/kg bw oral every other day at stage II, n = 8
Description: as §1, §2

[3] = Peptide stability in plasma; type: in vitro ADME; settings: rat plasma (heparinized), 0.5 mM, 37 °C, 8 h incubation, 3 kDa ultrafiltration, HPLC-UV peak area
Experimental: The assessment of peptide stability in plasma was conducted with modifications to a previously described method. Briefly, blood samples were collected in heparinized tubes and immediately centrifuged to separate the plasma supernatant. Subsequently, OG-5 was added to achieve a final concentration of 0.5 mM, and the mixture was incubated at 37 °C. At specified time points (0, 0.5, 1.0, 2.0, 4.0, and 8.0 h), the mixture was centrifuged using a 3 kDa ultrafiltration centrifugal tube to separate the filtrate. The filtrate was then analyzed using a Shimadzu LC-15 HPLC system, equipped with an SPD-15 ultraviolet detector (Kyoto, Japan). The HPLC analysis conditions included an injection volume of 10 μL, a flow rate of 1 mL/min, and a gradient elution program: 0–25 min, 0–25% acetonitrile (buffer B); 25–30 min, 25–35% buffer B; 30–35 min, 35–100% buffer B. The quantity of peptide OG-5 in the plasma was determined based on its peak area.

ApoE^−/− mice [4] = test: Bleeding time after long-term oral administration (Figure S1); type: in vivo, mouse; settings: n = 8
Description: The following supporting information can be downloaded at: https://www.mdpi.com/article/10.3390/nu16213752/s1, Figure S1: Bleeding time after oral administration of peptide OG-5 in ApoE^−/− mice (n = 8).

[5] = In vivo absorption experiment on rats; settings: rat
Experimental: The peptide absorption in vivo was conducted as previously described. The rats were orally administered with peptide OG-5 (1.0 g/kg bw). Blood samples were obtained via a minimal incision at the tail tip at 0, 0.5, 1, and 2 h after oral administration. The collected blood was transferred into 5 kDa ultrafiltration centrifugal tube, and the filtrate was collected for HPLC analysis. The elution program was conducted as follows: 0–5 min, 10–15% buffer B (acetonitrile); 5–20 min, 15–25% buffer B; 20–25 min, 25–100% buffer B.

Caco-2 cell monolayers [6] = test: Transport across Caco-2 cell monolayers; type: in vitro ADME, human; settings: Caco-2 monolayers 21 days, TEER > 800 Ω·cm^2, apical to basolateral, HBSS, pre-incubation 1 h 37 °C, incubation 2 h, HPLC
Experimental: The Caco-2 cell culture and the establishment of the transepithelial transport model were according to the previous study. The Caco-2 cells (10–20 passages) were grown in DMEM supplemented with 10% FBS and 1% penicillin streptomycin at 37 °C.
For the establishment of the transepithelial transport model, Caco-2 cells were seeded onto permeable polyester inserts (12 mm diameter, with a growth surface area of 1.12 cm^2 and a pore size of 0.4 μm, sourced from Costar, Corning, NY, USA) placed in 12-well transwell plates at a density of 1 × 10^5 cells per insert. Over a period of 21 days, the cell culture medium was replaced cautiously every two days to facilitate the differentiation of Caco-2 cells into fully confluent monolayers. […] The Caco-2 cell monolayers were delicately rinsed twice with HBSS and subsequently pre-incubated at 37 °C for 1 h. […]
Transport percentage (%) is calculated by the following equation: (1) Transport percentage %=transported amount of peptide in basolateral side/intial amount of peptide in apical side×100
The apparent permeability coefficient (Papp, cm/s) was calculated as follows:(2) Papp=dQ/dt×1/A×1/C0 where dQ/dt is the permeability rate (mmol/s); A is the area of the membrane (cm^2); C0 is the initial peptide concentration in the donor chamber (mM).

[7] = cited from earlier work
Description: The application of peptides is usually limited for the short half-life and is commonly due to fast renal clearance as well as enzymatic degradation, including aminopeptidases, carboxypeptidases, dipeptidases and endopeptidases occurring during systemic circulation.

Caco-2 cell monolayers [8] = settings: results reported for other peptides; cited from earlier work
Description: According to the previous study, a Papp value higher than 1.0 × 10^−5 cm ...

[9] = aspirin 25 mg/kg bw oral every other day at stage II
[10] = OG-5 50 mg/kg bw oral every other day, stages I and II
[11] = OG-5 150 mg/kg bw oral every other day at stage II
[12] = long-term oral 150 mg/kg bw, bleeding time

CC(=O)Oc1ccccc1C(=O)O [Aspirin, reference compound]
Final Body weight [1, 9]: 28.8 ± 1.7 g | Initial Body weight [1, 9]: 27.7 ± 2.8 g | Spleen index [1, 9]: 4.99 ± 2.64 mg/g bw | Thymus index [1, 9]: 0.83 ± 0.12 mg/g bw | HDL-C (ApoE^−/− mice [2]): 0.64 ± 0.37 mM | LDL-C (ApoE^−/− mice [2]): 9.55 ± 1.89 mM | TC (ApoE^−/− mice [2]): 41.09 ± 6.05 mM | TG (ApoE^−/− mice [2]): 3.43 ± 0.96 mM

O=C(O)CC[C@H](NC(=O)CNC(=O)[C@@H]1C[C@@H](O)CN1)C(=O)N[C@@H](Cc1ccccc1)C(=O)NCC(=O)O [OG-5, OGEFG] (H-[Hyp]GEFG-OH)
peptide remaining intact in plasma [3]: > 70% | remaining at 8 h ([3]; read-out: peptide remaining intact in plasma): 78.2% | Initial Body weight ([1]; OG-5 50 mg/kg bw oral every other day, stages I and II (24 weeks), mean ± standard): 24.5 ± 1.0 g | Final Body weight ([1]; OG-5 50 mg/kg bw oral every other day, stages I and II (24 weeks)): 27.7 ± 2.2 g | Spleen index [1, 10]: 4.16 ± 0.99 mg/g bw | Thymus index [1, 10]: 0.69 ± 0.15 mg/g bw | Initial Body weight ([1]; OG-5 150 mg/kg bw oral every other day at stage II (weeks 17-24)): 27.8 ± 2.5 g | Final Body weight [1, 11]: 28.9 ± 2.0 g | Spleen index [1, 11]: 4.80 ± 2.13 mg/g bw | Thymus index [1, 11]: 0.79 ± 0.13 mg/g bw | bleeding risk compared to aspirin (ApoE^−/− mice [4]; [12]): lower bleeding risk | bleeding risk compared with M model (ApoE^−/− mice [4]; [12]): a little bleeding risk | bleeding risk (ApoE^−/− mice [4]; low-dose sustainable intervention 50 mg/kg bw from stage I): without bleeding risks | Tmax ([5]; po, 1 g/kg): 2 h | Cmax ([5]; rats, oral 1.0 g/kg bw, tail blood at 0, 0.5, 1, 2 h, 5 kDa ultrafiltration, HPLC, read-out: peak plasma concentration): 77.8 µM | Papp (Caco-2 cell monolayers [6]): 18 ×10⁻⁶ cm/s | Transport percentage (Caco-2 cell monolayers [6]; spread printed ± 0.57): 14.40%

PGEOG
half-life in plasma [7]: 4.3 h

RVPSL [literature antihypertensive peptide, ovotransferrin 328–332, compared for Caco-2 Papp]
Papp (Caco-2 cell monolayers [8]): 7 ×10⁻⁶ cm/s

TNGIIR
Papp (Caco-2 cell monolayers [8]): 4.9 ×10⁻⁶ cm/s
